Data on 89 compounds can be found in a melting point compilation (Tetko et al.; mined from patent text by program, amines drawn as free bases though some values may be those of a salt).

The melting point is the temperature, or range, at which the solid turns liquid. For `Cc1ccccc1NC(=O)NCc1cccc2c1C(=O)N(C1CCC(=O)NC1=O)C2=O` (centres undefined), the melting point is > 260 °C. In the case of `CCOC(=O)C1=C(C)Nc2ccnc(OC(C)C)c2C1c1cccc([N+](=O)[O-])c1` (centres undefined) it was 180 to 182 °C; in that of `CS(=O)(=O)c1n[nH]c(NCCCCOc2cccc(CN3CCCCC3)c2)n1`, 79 to 81 °C. In the case of `COC(=O)CCC(=O)c1cc(OC)ccc1OCC1CO1` (centres undefined) it was 50 to 51.5 °C.

With `COc1cc(C=O)c(Br)c(Cl)c1OC`, the melting point was in the range of 118 to 119 °C. As to `CC(C)(C)c1cc(CN(c2cccnc2)S(C)(=O)=O)cc(C(C)(C)C)c1O`, the melting point is 133 to 134 °C. For the compound `CC1(C)C(=O)Nc2ccc(-c3cc(F)cc(C#N)c3)cc21`, the melting point lay within 231 to 232 °C. In the case of `CCc1ccc(Oc2cc3c(cc2Cl)C=C(C(=O)O)C(C(F)(F)F)O3)cc1` (centres undefined) it was 196 °C; in that of `CC(=O)NCCC1Nc2ccccc2N2CCc3cccc1c32` (centres undefined), 196 to 198 °C.

Compound `COC(=O)Cn1c(C(=O)NC(N)=S)cc2cc(C)cc(C)c21` registered a melting point of 226 to 231 °C.

Compound `CC(C)(C)OC(=O)c1cn(-c2ccc(Cl)cc2)c(-c2ccc(Cl)cc2Cl)n1` returned a melting point of 179 to 181 °C. In the case of `N#CCCc1cccc([N+](=O)[O-])c1` it was 86 to 88 °C; in that of `Oc1ccc2cc(Br)ccc2c1-c1c(O)ccc2cc(Br)ccc12`, 109 to 114 °C; in that of `CCn1c2ccccc2c2cc(OC)c(C#N)cc21`, 145 to 155 °C.

On to `Cc1c(C)c2c(c(C)c1Br)CC(C)(CBr)O2` (centres undefined), for which the melting point was in the range of 60 to 61 °C. Next, `O=C(NCCCCN1CCC(c2c[nH]c3ccccc23)CC1)c1sc(-c2ccc(C(F)(F)F)cc2)nc1CO`: 235 °C. In the case of `Nc1nc2ccccc2c2c1ncn2CC1(O)CCOCC1` it was 260 to 262 °C; in that of `CCOC(=O)/C=C/c1ccc(OCCCC#N)cc1Oc1ncc(C(F)(F)F)cc1Cl`, 106 to 107 °C. Next, `CCc1ncnc2ccc(CCc3cc(OC)ccc3OC)cc12`: 74 °C. `CC(C)(C)OC(=O)N1CCC2(CC1)CC(CCc1ccccc1)=NO2` came in with a melting point of 121 to 124 °C. In turn, `CCCC1=NN(c2cccnc2)C(=O)C1=CNc1ccccc1CC` displayed a melting point of 144 °C. Regarding `CC(C)(C)OC(=O)N(CC=Cc1ccccc1)S(N)(=O)=O`, the melting point is 118 °C. Next, `CC12CCC3C(CC=C4CCCCC43C)C1CC(F)C2=O` (centres undefined): 228 to 230 °C. In turn, `CS(=O)(=O)Nc1cc2occ(Br)c(=O)c2cc1Oc1ccccc1` had a melting point of 215 to 216 °C. In the case of `Cn1nc(C(=O)NCc2ccc(Cl)cc2)c(=O)c2cc(I)cnc21` it was 207 to 208 °C; in that of `CCOC(=O)C1=C(C)NN=C(CC)C1c1cccc([N+](=O)[O-])c1` (centres undefined), 124 °C; in that of `O=C(C=P(c1ccccc1)(c1ccccc1)c1ccccc1)CCCc1ccccc1`, 93 to 95 °C. As for `N#Cc1cc(-c2cc(C(F)F)c3cnn(C4CCCCO4)c3n2)ccc1N` (centres undefined), the melting point is 192 °C. In the case of `CS(=O)(=O)OCCCCC1C(=O)Nc2ccc(F)cc21` (centres undefined) it was 106 to 108 °C; in that of `CC(=O)Oc1ccc2nc(NC(=O)Nc3ccccc3)sc2c1`, 210 to 213 °C. In the case of `CCCCN(CCCC)c1ccc(C=CC=Cc2ccc(C=CC3=C(C#N)C(=C(C#N)C#N)OC3(C)C)s2)c(OC)c1` it was 185 to 187 °C; in that of `CCc1c(CCNC(=O)CCCCC(=O)OC)ccc(OC)c1OC`, 37 to 39 °C. In the case of `CCN(CC)C(=O)Nc1c(C(=O)c2ccccc2)[nH]c2cc(Cl)ccc12` it was 196 to 198 °C; in that of `O=C1NC(=O)N(CCCc2ccccc2)C1O` (centres undefined), 131 to 132 °C.

`COc1cc(CNc2n[nH]c3ncnc(Nc4cccc(Cl)c4)c23)cc(OC)c1` showed a melting point of 208 to 209 °C. Consider `CC(C)(C)C(=O)Nc1ccccc1CC(O)c1ccccc1` (centres undefined), for which the melting point was in the range of 183 to 184 °C. Next, `CC1(C)COC(=O)OC1`: 108 to 109 °C.

For `CN1C(=O)C(NC(=O)Nc2cccc(F)c2)N=C(c2ccccc2)c2ccccc21` (centres undefined), the melting point lay within 252 to 254 °C. The compound `CCOC(=O)c1cnc(SC)nc1NCc1ccc(OC)c([N+](=O)[O-])c1` showed a melting point of 99 to 100 °C. `CCCOc1ccccc1-c1nc2sccc2c(=O)[nH]1` gave a melting point of 115 to 117 °C. Next, `CC(C)n1nc(-c2ccc(O)cc2O)c2cccc(C(F)(F)F)c21`: 61 to 63 °C. Next, `Cn1cc(Br)c(-c2cccc(NC(=O)Cc3ccc(OC(F)(F)F)cc3)c2)n1`: 141 to 142 °C; `Cc1cccc(C)c1N(CC(=O)N(C)C)C(=O)CCl`: 74 to 76 °C.

In turn, `COC(=O)c1cc(-c2nc(COc3ccc(COc4nn(-c5ccccc5)cc4C=O)cc3OC)c(C)o2)ccc1OC` registered a melting point of 165 to 166 °C. In the case of `Cc1cnc(COc2nn3c(-c4ccccc4)nnc3cc2-c2ccccc2)s1` it was 182 °C; in that of `O=C(Nc1ccc(Cl)c(-c2ccnc3c(C(=O)c4cccs4)cnn23)c1)c1ccccc1`, 194 to 195 °C.

With `CCOC(=O)c1cc(CCc2cc3c(s2)-n2c(C)nnc2CN=C3c2ccccc2Cl)ccc1CC(=O)O`, the melting point lay within 128 to 132 °C.

`N=C(Nc1ccc(F)cc1)Nc1ncccc1OCc1c(F)cccc1Cl`: the melting point was 152 to 154 °C. Next, `C=Cc1ccc(CSCCNC(=O)CCCC(=O)O)cc1`: 118 to 119 °C; `CCCCc1nn(-c2ccc(C(F)(F)F)cn2)cc1CCCOc1ccccc1CC(=O)O`: 106 to 107 °C; `CC(c1ccc(-c2ccccc2)c(F)c1)c1csc(N)n1` (centres undefined): 167 to 168 °C. Next, `C=CCOc1ccc2ccc(NC(=O)c3ccc(OC)cc3)nc2n1`: 108 °C. Next, `CCC(Oc1cc(Cl)cc(Cl)c1Cl)C(=O)O` (centres undefined): 106 to 114 °C; `COC(=O)c1ccc(N2CCCC2=O)c([N+](=O)[O-])c1`: 159 to 161 °C; `CCC(C(N)=O)c1c(C(O)(C(F)(F)F)C(F)(F)F)ccc2ccccc12` (centres undefined): 189 to 190 °C. Compound `N#CC(=Cc1cccnc1)c1cc(Cl)cc(Cl)c1` had a melting point of 139 to 141 °C. For the compound `Cn1cc(-c2ccccc2)c(=O)c(-c2cccs2)c1`, the melting point fell in the range of 147 to 148 °C. Next, `C=CCC(O)(Cn1cncn1)C1(Cl)CC1` (centres undefined): 75 to 76 °C; `CC(=O)NCCC1=CCc2ccc3nc(C)oc3c21`: 154 to 156 °C. In the case of `COc1cn(C(C)C)c(=O)o1` it was 108 to 110 °C; in that of `CCCCC(=O)c1c(-c2ccc3cc(O)ccc3c2)oc2ccccc12`, 148 to 149 °C; in that of `CCOC(=O)Nc1ccc2oc(-c3ccccc3)cc2c1`, 164 °C. `[N-]=[N+]=C1C(=O)CC(c2ccccc2)CC1=O` (centres undefined) yielded a melting point of 122 to 124 °C. In turn, `O=C(CCCO)NCc1cccc(Nc2n[nH]c3ncnc(Nc4cccc(Cl)c4)c23)c1` displayed a melting point of 182 to 184 °C. Next, `CC(C)(C)CN1C(=O)N(CC(=O)O)CC(c2ccccc2Cl)c2cc(Cl)ccc21` (centres undefined): 228 to 231 °C; `O=C(SC[C@@H](SC(=O)c1ccccc1)C(=O)N1CCC[C@H]1C(=O)O)c1ccccc1`: 195 to 196 °C; `COC(=O)c1ccc(N2C3CCC2CN(CC(=O)N2CC=C(c4cccc5ccsc45)CC2)C3)nc1`: 153 to 154 °C.

The compound `COc1cc(C(=O)N(C(C)C)C2CCCCC2)ccc1Br` showed a melting point of 104 to 107 °C.

Take `COc1c(OC(C)=O)ccc2cc[nH]c12`: the melting point was 241 to 244 °C. For `O=C(Nc1cc(-n2cccn2)nc(-c2ccco2)n1)OCC1CCCC1`, the melting point fell in the range of 60 to 61.3 °C. As to `COc1cc(Nc2nccc(-c3ccccn3)n2)cc(OC)c1OC`, the melting point was 185 °C. Next, `CC(C)Nc1nc2c(Br)c(Cl)c(Cl)cc2n1[C@H]1O[C@@H](CO)[C@H](O)[C@@H]1O`: 221 to 222 °C. Compound `NC(=NCC(F)(F)F)Nc1ccnc(CSCCN2C(=O)c3ccccc3C2=O)n1` had a melting point of 167 to 168 °C. In the case of `C#CCN(Cc1ccc2nc(C)[nH]c(=O)c2c1)c1ccc(C(=O)NCC(OC(C)=O)c2ccccc2)cc1` (centres undefined) it was 203 to 205 °C; in that of `COCc1nc(C(C)(C)O)c(C(=O)O)n1Cc1ccc(-c2ccccc2-c2nnn[nH]2)cc1`, 187 °C; in that of `Clc1ccc(C2OC(c3ccncc3)=Nc3ccc(Cl)cc32)cc1` (centres undefined), 140 to 141 °C.

Regarding `O=C(O)Cc1cc(C(=O)c2ccc(F)cc2)ccc1O`, the melting point was 218 °C.

On to `C=C(C)CONC(=O)c1nc(-c2ccc(Cl)c(OC)c2F)cc(N)c1Cl`, for which the melting point lay in the range of 147 to 149 °C. In the case of `CCCC(=O)C(=CNc1ccccc1COC(=O)c1ccccc1)C(=O)OCC` it was 78 to 82 °C. The compound `O=C1NC(=O)C(N(CC#Cc2ccc(F)cc2)c2ccc(CCNCC(O)COc3ccc(OCc4ccccc4)cc3)cc2)S1` (centres undefined) showed a melting point of 99 to 101 °C. Next, `CCOC(=O)CC(=O)c1ccc(-c2ccc(Cl)cc2)o1`: 46 to 47 °C; `COc1ccc([N+](=O)[O-])c(C=O)c1`: 89 to 90 °C; `O=C(Nc1ccc(Cl)c(Cl)c1)OCCCC(=O)c1ccccc1`: 141 to 143 °C. In the case of `COc1ccc(NCCCOc2ccc3ccc(OCCCNc4ccc(OC)cc4)cc3c2)cc1` it was 127 °C.

Compound `CC(C)c1cccc(C(C)C)c1NC(=O)Cc1ccccc1NCC(c1ccccc1)c1ccccc1` displayed a melting point of 174 to 176 °C. As for `Nc1nc(Br)nc2c1ncn2C1OC(CO)C(O)C1F` (centres undefined), the melting point lay in the range of 209 to 210 °C. As to `O=C(CO)c1ccc(F)cc1`, the melting point was 116 to 117 °C. In the case of `O=c1c(-c2cccc(C(F)(F)F)c2)c[nH]n1-c1cccc(Cl)c1` it was 182 to 184 °C; in that of `NC(=O)C1=NN(c2cccc(COCC(F)(F)C(F)(F)F)c2)C(c2ccccc2F)N1` (centres undefined), 151 to 153 °C.
